# In patent US5281710A, “Dynemicin analogs: synthesis, methods of preparation and use” (The Scripps Research Institute, priority 1992, dated 1994):
# Where two headings read alike, the source gives them in different places.
# Tests used:
# φX174 Form I DNA = assay: φX174 supercoiled DNA cleavage, agarose gel; assay type: biochemical; conditions: for DNA cleavage: 37° C.
# Experimental: The ethereal solution of Compound 40 produced by the LiAlH4 reduction of Compound 21 (39 mg, 0.10 mmol) was evaporated in vacuo to dryness and the residue dissolved in THF (4 mL) to give a 25 mM solution of Compound 40, assuming complete conversion of Compound 21. […]
# Thus, a vial containing a 50 micromolar per base pair solution […] of the same buffer solution and 2.0 microliters of a 5.0 millimolar ethanol solution of Compound 40.
# […] A 2.0 microliter portion of glycerol loading buffer solution containing bromothymol blue indicator was added to each vial. A 10 microliter aliquot was then drawn from each. Gel electrophoresis analysis of the aliquots was performed using a 1.0 percent agarose gel with ethidium bromide run at 115 volts for 1 hour. DNA cleavage was indicated by the formation of nicked relaxed circular DNA (form II) or linearized DNA (form III), which was detected by visual inspection of the gel under 310 nanometer ultraviolet light using ethidium bromide.
# cancer cell lines = assay: cells; assay type: cell-based; conditions: Average data obtained from 5~10 cell lines; read-out: IC50 (average)
# Experimental: (§1) In addition to the screening already discussed, several of the before-described compounds and chimeras were screened against several or all of a panel of ten to twenty-five cancerous cell lines as target cells and seven "normal" cell preparations. This screening utilized a sulforhodamine B cytotoxidity assay as discussed below.
# SULFORHODAMINE B CYTOTOXICITY ASSAY
# a. Stock drug solutions were prepared by dissolving drug in the appropriate solvent (determined during chemical characterization studies) and sterile filtering the drug-solvent solution through a sterile 0.2μ filter unit. An aliquot was taken from each filtered drug solution and the O.D. was measured to determine the drug concentration.
# f. Incubate (37° C., 5-10 percent CO2 in humidified incubator) plates for a total of 72 hours. Check plates at 24 hour intervals microscopically for signs of cytotoxicity.
# (§2) IC50 values; i.e., the concentration of Compound required to kill one-half of the treated cells, were then calculated.
# All other cells or cell lines were obtained from the American Type Culture Collection (ATCC) (all except CHO cells are human or mouse cancer cell lines as described by the ATC).
# Tables 1 and 2 herein below provide average IC50 data from five to all ten of the above cancer cells lines for fused ring enediyne compounds disclosed herein. Those tables provide a generic structure and a description of the R group of that generic structure for each compound. Compound numbers as noted hereinbefore are also provided. Table 3 contains data for two fused-ring enediyne compounds (Compounds 47 and 120) as well as data for six chimers. Table 4 contains cancer cell and noraml cell cytotoxicity data for one select fused ring enediyne, Compound 153 against a number of "normal" cell preparations and tumor cell lines. Table 5 contains cancer cell and normal cell cytotoxicity data for another fused ring enediyne, Compound 250 against a similar panel of cells.
# SK-Mel-28 melanoma cells = assay: Sulforhodamine B cytotoxicity, SK-Mel-28; assay type: cell-based
# Experimental: as §1, §2
# [1] = system: MCF-7(ADR) breast carcinoma cells; assay: Sulforhodamine B cytotoxicity, MCF-7/ADR; assay type: cell-based; conditions: Homo sapiens, NCI/ADR-RES, Adriamycin resistant
# Experimental: as §1, §2
# [2] = system: Capan-1 pancreatic carcinoma cells; assay: Sulforhodamine B cytotoxicity, Capan-1; assay type: cell-based
# Experimental: as §1, §2
# [3] = system: HL-60 promyeocytic leukemia cells; assay: Sulforhodamine B cytotoxicity, HL-60; assay type: cell-based
# Experimental: as §1, §2
# [4] = system: P-388 leukemia cells in Balb/c mice; assay: In vivo P-388 leukemia in Balb/c mice; parameters: species or system mouse; conditions: single dose
# Experimental: In an in vivo study whose results are shown in FIG. 8, Balb/c mice were injected intra-peritoneally with 10^6 P-388 leukemia cells per mouse (the cells were suspended in 100 μl RPMI medium) on day zero. Therapy was started on day 1 by injecting each group of four animals with the indicated dose of Compound 45, which was administered only once in this assay. The course of therapy was followed by tumor-induced weight change in the animals and by recording death incidents (arrows). […] At the dose of 25 mg/kg Compound 45, the increase in life span over the control group was 175 percent (therapeutic group/control group).
# [5] = Lethal dose / toxicity in mice; assay type: in vivo, mouse
# [6] = system: SK-Mel-28, M-14, M-21, Capan-1, Ovcar-3, Ovcar-4, UCLA-P-3, U-87, U-251 and Molt-4 cell lines; assay type: cell-based; conditions: ten tumor cell lines
# Experimental: In other studies, IC50 values were determined for the anti-tumor agents dynemicin A, calicheamicin γ1^I, taxol, vinblastine/vincristine, doxorubicin, actinomycin D and bleomycin sulfate against the SK-Mel-28, M-14, M-21, Capan-1, Ovcar-3, Ovcar-4, UCLA-P-3, U-87, U-251 and Molt-4 cell lines.
# [7] = system: MOLT-4 (Leukemia) cell line; assay: cells; assay type: cell-based; conditions: read-out: Cytotoxicity (IC50)
# Experimental: as §1, §2
# [8] = system: NHDF normal human dermal fibroblasts; assay: in vitro; assay type: cell-based; conditions: Table 7, NHDF
# Experimental: as §1, §2
# (§3) NHDF Normal human dermal fibroblasts
# [9] = system: Ovcar-3 ovarian carcinoma cells; assay: Sulforhodamine B cytotoxicity, Ovcar-3; assay type: cell-based; conditions: read-out: Cytotoxicity (IC50)
# Experimental: as §1, §2
# [10] = system: HT-29 colon carcinoma cells; assay: Sulforhodamine B cytotoxicity, HT-29; assay type: cell-based; conditions: Table 7, HT-29, read-out: Cytotoxicity (IC50)
# Experimental: as §1, §2
# [11] = system: MCF-7 breast carcinoma cells; assay: Sulforhodamine B cytotoxicity, MCF-7; assay type: cell-based; conditions: Table 7, MCF-7, read-out: Cytotoxicity (IC50)
# Experimental: as §1, §2
# [12] = system: UCLA P-3 non-small cell lung carcinoma cells; assay: Sulforhodamine B cytotoxicity, UCLA-P3; assay type: cell-based, human; conditions: read-out: Cytotoxicity (IC50)
# Experimental: as §1, §2
# UCLA P-3 Dr. D. Morton, University of California, […]
# [13] = system: H-322 lung carcinoma cells; assay: Sulforhodamine B cytotoxicity, H-322; assay type: cell-based; conditions: Table 7, H-322; for IC50: NCI-H322, read-out: Cytotoxicity (IC50)
# Experimental: as §1, §2
# [14] = system: P-388 mouse lymphoma cells; assay: Sulforhodamine B cytotoxicity, P-388; assay type: cell-based; conditions: Table 7, P-388, read-out: Cytotoxicity (IC50)
# Experimental: as §1, §2
# [15] = system: CHO Chinese hamster ovary cells; assay: Sulforhodamine B cytotoxicity, CHO; assay type: cell-based; conditions: Table 7, CHO
# Experimental: as §1, §2
# in vitro = assay type: cell-based, human; conditions: human, nhdf cells; Table 7, NHDF; read-out: Cytotoxicity (IC50)
# Experimental: as §1, §2, §3
# [16] = Sulforhodamine B cytotoxicity, CHO; assay type: cell-based, Chinese hamster; conditions: hamster, cho cells; Table 7, CHO; read-out: Cytotoxicity (IC50)
# Experimental: as §1, §2
# [17] = system: tumor cells and "normal" cells; assay: Relative activity against tumor cells and normal cells; assay type: cell-based
# Source text: In contrast, 100 percent of normal human mammary epithelial cells (HMEC) were viable at the same concentration.
# [18] = system: 93 base-pair Sal I - Sph I double-stranded DNA fragment of pBR322; assay: DNase I footprinting of oligosaccharide glycosides; assay type: binding; conditions: 37° C., 30 minutes pre-incubation
# Source text: Footprinting studies the O-methyl glycosides of saccharides A, an analog of C, F, G and H, Compounds A-1, C'-1, F-1, G-1 and H-1, respecitvely, as shown below, were designed to probe these questions.
# The oligosaccharides A-1, C'-1, F-1, G-1 and H-1 were obtained by chemical synthesis following procedures similar to those discussed before. The 93 base-pair Sal I - Sph I double-stranded DNA fragment of pBR322 was obtained enzymatically and was [5-^32 P]-labeled on one strand. pBR322 DNA was cleaved at the unique Sal I site, dephosphorylated using calf intestine phosphatase, (5'-^32 P]-phosphorylated using T4 polynucletide kinase and [g-^32 P] ATP (4.5 ^m Ci/pmol) , and cleaved again at the unique Sph I site. These precursors generated a 93 base-pair double-stranded fragment, (5'-^32 P)-labeled at the Sal I end, which was purified by gel electrophosresis in a nondenaturing 10 percent polyacrylamide gel and subsequent column chromatography on Sephadex G-25. The oligosaccharides were pre-incubated with the DNA fragment at 37° C. for 30 minutes and DNase I was added to cleave the DNA and generate footprinting patterns by autoradiography.
# The degree of protection against DNase I digestion offered by both the natural and unnatural stereoisomers was determined by comparing the amount of radioactivity in adjacent lanes along the electrophoresis gel. […]
# [19] = 5.0 mM, pH 8.5 and 9.0, 48 hours
# [20] = Homo sapiens, SK-MEL-28, Table 7, SK-Mel-28, read-out: Cytotoxicity (IC50)
# [21] = Homo sapiens, OVCAR-3, Table 7, Ovcar-3
# [22] = Homo sapiens, UCLA P-3, Table 7, UCLA-P3
# [23] = Homo sapiens, CAPAN-1, Table 7, Capan-1, read-out: Cytotoxicity (IC50)
# [24] = Homo sapiens, HL-60, Table 7, HL-60, read-out: Cytotoxicity (IC50)
# [25] = Table 7, Capan-1, read-out: Cytotoxicity (IC50)
# [26] = Table 7, HL-60, read-out: Cytotoxicity (IC50)
molecule,measurement,setting,value
O=C(OCCS(=O)(=O)c1ccccc1)N1c2ccccc2C23OC24CCCC3C#C/C=C\C#CC14 (stereo not shown) [Compound 45],DNA cleavage,"φX174 Form I DNA; pH 8.5, 24 or 48 hours",strong DNA cleavage activity
same,DNA cleavage potency,"φX174 Form I DNA; pH 8.5, 1000 and 100 μM",comparable potencies
same,IC50,cancer cell lines,0.2 µM
same,IC50,"SK-Mel-28 melanoma cells; Homo sapiens, SK-MEL-28, SK-Mel-28, read-out: IC50",6.3 µM
same,IC50,[1],1.6 µM
same,IC50,"[2]; Homo sapiens, CAPAN-1, Capan-1, read-out: IC50",1.6 µM
same,IC50,"[3]; Homo sapiens, HL-60, HL-60, read-out: IC50",3.9 µM
same,deaths / weight course,[4]; 12 mg/kg,three of the four animals died
same,increase in life span over control group,[4]; 25 mg/kg,175%
same,time to death,"[4]; 50 mg/kg, rapid weight loss",≤ 8 days
same,toxicity relative to naturally occurring enediynes,[5],significantly less than naturally occurring enediynes
same,LD50,"[5]; mouse, in vivo",~50 mg/kg
bleomycin sulfate [reference compound],relative potency among agents across cell lines,[6],considerably less active against all the cell lines
CC(C)(COC(=O)N1c2ccccc2[C@@]23O[C@]24CCC[C@H]3C#C/C=C\C#C[C@H]14)S(=O)(=O)c1ccccc1 (relative stereo) [Compound 429],DNA cleavage,φX174 Form I DNA; [19],no DNA cleaving ability
same,IC50,"[7]; Homo sapiens, MOLT-4, Table 7, Molt-4",100 µM
same,Cytotoxicity (IC50),[8],Non-Toxic
same,IC50,SK-Mel-28 melanoma cells; [20],< 100 µM
same,IC50,[9]; [21],50 µM
same,IC50,"[10]; Homo sapiens, HT-29, 72 h",25 µM
same,IC50,"[11]; Homo sapiens, MCF7, 72 h",25 µM
same,IC50,[12]; [22],50 µM
same,IC50,[13],50 µM
same,IC50,[2]; [23],50 µM
same,IC50,[3]; [24],25 µM
same,IC50,"[14]; Mus musculus, P388",13 µM
same,Cytotoxicity (IC50),[15],Non-Toxic
O=C(Oc1ccccc1)N1c2ccccc2C23OC24CCCC3C#C/C=C\C#CC14 (stereo not shown) [Compound 21],IC50,cancer cell lines,5 µM
same,CC50,in vitro,6.3 µM
same,IC50,SK-Mel-28 melanoma cells; [20],63 µM
same,IC50,[9]; [21],0.78 µM
same,IC50,"[10]; Homo sapiens, HT-29, 72 h",0.39 µM
same,IC50,"[11]; Homo sapiens, MCF7, 72 h",3.1 µM
same,IC50,[12]; [22],0.78 µM
same,IC50,[13],3.1 µM
same,IC50,[2]; [23],0.078 µM
same,IC50,[3]; [24],0.098 µM
same,IC50,"[14]; Mus musculus, P388",0.098 µM
same,CC50,[16],6.3 µM
CC(COC(=O)N1c2ccccc2C23OC24CCCC3C#CC=CC#CC14)S(=O)(=O)c1ccccc1 (stereo not shown) [Compound 428],DNA cleavage,φX174 Form I DNA; [19],greatly reduced in vitro DNA cleaving ability
same,IC50,"[7]; Table 7, Molt-4",1 µM
same,CC50,[8]; read-out: Cytotoxicity (IC50),< 100 µM
same,IC50,"SK-Mel-28 melanoma cells; Table 7, SK-Mel-28, read-out: Cytotoxicity (IC50)",< 100 µM
same,IC50,"[9]; Table 7, Ovcar-3",13 µM
same,IC50,[10]; 4320 min,13 µM
same,IC50,[11]; 4320 min,< 100 µM
same,IC50,"[12]; Table 7, UCLA-P3",13 µM
same,Cytotoxicity (IC50),[13],Non-Toxic
same,IC50,[2]; [25],6.3 µM
same,IC50,[3]; [26],1.6 µM
same,IC50,[14],1.6 µM
same,CC50,[15]; read-out: Cytotoxicity (IC50),< 100 µM
CC(COC(=O)N1c2ccccc2C23OC24CCCC3C#CC=CC#CC14)S(=O)(=O)c1ccccc1 (stereo not shown) [Compound 427],DNA cleavage,φX174 Form I DNA; [19],greatly reduced in vitro DNA cleaving ability
same,IC50,"[7]; Table 7, Molt-4",0.001 µM
same,CC50,in vitro,< 100 µM
same,IC50,SK-Mel-28 melanoma cells; [20],50 µM
same,IC50,"[9]; Table 7, Ovcar-3",3.1 µM
same,IC50,[10]; 4320 min,0.78 µM
same,IC50,[11]; 4320 min,25 µM
same,IC50,"[12]; Table 7, UCLA-P3",3.1 µM
same,IC50,[13],13 µM
same,IC50,[2]; [25],3.1 µM
same,IC50,[3]; [26],0.78 µM
same,IC50,"[14]; Mus musculus, P388",1.6 µM
same,CC50,[16],< 100 µM
same,selectivity between normal and cancer cells (qualitative),[17],reduced cytotoxicity of Compound 427 against normal cell lines while maintaining considerable activity against cancer cell lines
CCNC1COC(OC2C(OC)OC(C)C(NOC3CC(O)C(SC(=O)c4c(C)c(I)c(OC5OC(C)C(O)C(OC)C5O)c(OC)c4OC)C(C)O3)C2O)CC1OC (stereo not shown) [Compound G-1],protection of DNA against DNase I,[18],no protection at the same concentrations
CCNC1COC(OC2C(OC)OC(C)C(NOC3CC(O)C(SC(=O)c4c(C)c(I)c(OC5OC(C)C(O)C(OC)C5O)c(OC)c4OC)C(C)O3)C2O)CC1OC (stereo not shown) [Compound F-1],protection of DNA against DNase I,[18],concentration-dependent protection
